In patent publication US8901118B2, “Compounds and methods for kinase modulation, and indications therefor” (Plexxikon Inc., priority 2010, dated 2014):

What was measured:
BCR-NTRK1 BaF3 cells = target: T1, BCR-NTRK1 BaF3 cells (Homo sapiens, UniProt P04629); test: BaF3 BCR-NTRK1 cell proliferation assay (ATPlite); format: cell-based; conditions: read-out: Inhibition of Cell Proliferation IC50, BCR/BaF3 TrkA
T1 construct: fused on or other part: P11274 (Breakpoint cluster region protein)
Method in brief: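 BaF3 lines were seeded at 10,000 cells/well in growth medium with 1 mg/mL G418 but no IL-3, and MV-4-11 cells at 25,000 cells/well; plates were left overnight at 37 °C. Compounds were added as an 8-point 1:3 series with a top concentration of 10 μM and incubated 3 days. IC50 was taken from ATPlite luminescence.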

CYP2D6 = CYP2D6 (Homo sapiens, UniProt P10635); test: CYP2D6 inhibition (fluorescent substrate AMMC); format: in vitro ADME; conditions: read-out: Cyp IC50 2D6
Chain of CYP2D6 (P10635 whole entry): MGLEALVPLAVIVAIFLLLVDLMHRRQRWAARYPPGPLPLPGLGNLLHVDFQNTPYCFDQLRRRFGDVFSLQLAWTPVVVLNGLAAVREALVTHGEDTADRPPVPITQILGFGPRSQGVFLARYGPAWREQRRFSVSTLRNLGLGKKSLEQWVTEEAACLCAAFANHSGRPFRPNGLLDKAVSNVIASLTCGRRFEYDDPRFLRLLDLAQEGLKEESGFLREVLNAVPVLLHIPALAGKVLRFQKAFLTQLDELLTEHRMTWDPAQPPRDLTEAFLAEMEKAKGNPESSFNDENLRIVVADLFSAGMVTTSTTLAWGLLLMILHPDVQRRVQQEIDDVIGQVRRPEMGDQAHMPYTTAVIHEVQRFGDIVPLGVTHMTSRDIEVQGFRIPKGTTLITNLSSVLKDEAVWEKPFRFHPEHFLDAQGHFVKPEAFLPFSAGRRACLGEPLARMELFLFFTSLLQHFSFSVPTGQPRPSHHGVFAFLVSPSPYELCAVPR
Method in brief: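 Test compounds, 10-point 1:1 serial dilutions in NADPH-regenerating cofactor mix, were preincubated 10 min at 37° C before recombinant enzyme and fluorogenic substrate reactions at 37° C (CYP1A2 15 min; CYP2C9 45 min; CYP2C19, 2D6 30 min). Product fluorescence was read at 409 ex with 460 em (1A2, 2C19) or 530 em (2C9, 2D6), and IC50 fitted from signal versus concentration.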

CYP3A4(BFC) = CYP3A4(BFC) (Homo sapiens, UniProt P08684); test: CYP3A4(BFC) inhibition; format: in vitro ADME; conditions: CYP3A4, substrate BFC; read-out: Cyp IC50 3A4(BFC)
Chain of CYP3A4(BFC) (P08684 whole entry): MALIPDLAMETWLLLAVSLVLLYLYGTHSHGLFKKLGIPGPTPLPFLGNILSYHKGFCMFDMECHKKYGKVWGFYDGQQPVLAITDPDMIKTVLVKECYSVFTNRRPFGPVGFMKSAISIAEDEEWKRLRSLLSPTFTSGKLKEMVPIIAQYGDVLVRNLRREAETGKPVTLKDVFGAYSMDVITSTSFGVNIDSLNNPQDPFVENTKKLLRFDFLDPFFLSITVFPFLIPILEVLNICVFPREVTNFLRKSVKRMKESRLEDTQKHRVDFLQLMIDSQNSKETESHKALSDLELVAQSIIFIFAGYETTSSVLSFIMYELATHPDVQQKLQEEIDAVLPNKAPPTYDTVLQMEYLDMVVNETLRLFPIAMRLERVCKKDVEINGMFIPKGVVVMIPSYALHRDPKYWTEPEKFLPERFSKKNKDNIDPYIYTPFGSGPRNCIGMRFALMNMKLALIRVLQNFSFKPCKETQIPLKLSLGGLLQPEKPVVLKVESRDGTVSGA
Method in brief: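 Inhibition of human CYP3A4 with the BFC substrate was measured by fluorescence loss of the metabolized product. Compounds at 100 mM in DMSO were diluted 1 μL into 82 μL acetonitrile, then 11 μL into 204 μL cofactor mix with NADPH regeneration solutions, and serially diluted 1:1 to 10 points. Plates were incubated 30 min at 37° C and read at 409 ex/460 em to obtain IC50.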

T1 sequence (P04629 510-781): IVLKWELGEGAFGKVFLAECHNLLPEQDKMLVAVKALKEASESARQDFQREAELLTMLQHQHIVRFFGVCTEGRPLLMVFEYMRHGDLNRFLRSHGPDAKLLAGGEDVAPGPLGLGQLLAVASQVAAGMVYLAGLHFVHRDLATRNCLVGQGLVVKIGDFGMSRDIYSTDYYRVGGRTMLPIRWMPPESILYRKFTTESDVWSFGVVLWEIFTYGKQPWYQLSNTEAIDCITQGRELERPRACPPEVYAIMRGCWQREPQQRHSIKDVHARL

Clc1cnc2[nH]cc(Cc3cnc(NC4CCCCC4)nc3)c2c1 [Compound P-3001, [5-(5-chloro-1H-pyrrolo[2,3-b]pyridin-3-ylmethyl)-pyrimidin-2-yl]-cyclohexyl-amine]
IC50 (BCR-NTRK1 BaF3 cells): > 10000 nM | IC50 (CYP2D6): > 10 µM | IC50 (CYP3A4(BFC)): > 10 µM

FC1(F)CCC(Nc2ncc(Cc3c[nH]c4ncc(Cl)cc34)cn2)CC1 [Compound P-3004]
IC50 (BCR-NTRK1 BaF3 cells): < 10000 nM | IC50 (CYP2D6): > 10 µM | IC50 (CYP3A4(BFC)): > 10 µM

Clc1cnc2[nH]cc(Cc3cnc(NC4CCCCCC4)nc3)c2c1 [Compound P-3006, [5-(5-Chloro-1H-pyrrolo[2,3-b]pyridin-3-ylmethyl)-pyrimidin-2-yl]-cycloheptyl-amine]
IC50 (BCR-NTRK1 BaF3 cells): < 20000 nM | IC50 (CYP2D6): > 10 µM | IC50 (CYP3A4(BFC)): > 10 µM

Cc1cnc2[nH]cc(Cc3cnc(Nc4ccc(C(F)(F)F)nc4)nc3)c2c1 [Compound P-3018, [5-(5-Methyl-1H-pyrrolo[2,3-b]pyridin-3-ylmethyl)-pyrimidin-2-yl]-(6-trifluoromethyl-pyridin-3-yl)-amine]
IC50 (BCR-NTRK1 BaF3 cells): < 1000 nM | IC50 (CYP2D6): > 10 µM | IC50 (CYP3A4(BFC)): < 5 µM

COc1ccc(Nc2ccc(Cc3c[nH]c4ncc(C)cc34)c(F)n2)cn1 [Compound P-3019, [6-fluoro-5-(5-methyl-1H-pyrrolo[2,3-b]pyridin-3-ylmethyl)-pyridin-2-yl]-(6-methoxy-pyridin-3-yl)-amine]
IC50 (BCR-NTRK1 BaF3 cells): < 100 nM | IC50 (CYP2D6): > 10 µM | IC50 (CYP3A4(BFC)): > 10 µM

CCOc1ccc(Nc2ccc(Cc3c[nH]c4ncc(C)cc34)c(F)n2)cn1 [Compound P-3039, (6-ethoxy-pyridin-3-yl)-[6-fluoro-5-(5-methyl-1H-pyrrolo[2,3-b]pyridin-3-ylmethyl)-pyridin-2-yl]-amine]
IC50 (BCR-NTRK1 BaF3 cells): < 1000 nM | IC50 (CYP2D6): > 10 µM | IC50 (CYP3A4(BFC)): > 10 µM

COc1ccc(Nc2ccc(C(=O)c3c[nH]c4ncc(C)cc34)c(F)n2)cn1 [Compound P-3040, [2-Fluoro-6-(6-methoxy-pyridin-3-ylamino)-pyridin-3-yl]-(5-methyl-1H-pyrrolo[2,3-b]pyridin-3-yl)-methanone]
IC50 (BCR-NTRK1 BaF3 cells): < 100 nM | IC50 (CYP2D6): > 10 µM | IC50 (CYP3A4(BFC)): > 10 µM

Cc1cnc2[nH]cc(Cc3ccc(Nc4ccc(C)nc4)nc3F)c2c1 [Compound P-3041, [6-Fluoro-5-(5-methyl-1H-pyrrolo[2,3-b]pyridin-3-ylmethyl)-pyridin-2-yl]-(6-methyl-pyridin-3-yl)-amine]
IC50 (BCR-NTRK1 BaF3 cells): < 1000 nM | IC50 (CYP2D6): > 10 µM | IC50 (CYP3A4(BFC)): 5 to 10 µM

Cc1cnc2[nH]cc(C(=O)c3ccc(Nc4ccc(C)nc4)nc3F)c2c1 [Compound P-3043, [2-Fluoro-6-(6-methyl-pyridin-3-ylamino)-pyridin-3-yl]-(5-methyl-1H-pyrrolo[2,3-b]pyridin-3-yl)-methanone]
IC50 (BCR-NTRK1 BaF3 cells): < 100 nM | IC50 (CYP2D6): > 10 µM | IC50 (CYP3A4(BFC)): > 10 µM

Cc1ccc(Nc2ccc(C(=O)c3c[nH]c4ncc(Cl)cc34)c(F)n2)cn1 [Compound P-3044, (5-Chloro-1H-pyrrolo[2,3-b]pyridin-3-yl)-[2-fluoro-6-(6-methyl-pyridin-3-ylamino)-pyridin-3-yl]-methanone]
IC50 (BCR-NTRK1 BaF3 cells): < 1000 nM | IC50 (CYP2D6): > 10 µM | IC50 (CYP3A4(BFC)): > 10 µM

CCc1ccc(Nc2ccc(Cc3c[nH]c4ncc(C)cc34)c(F)n2)cn1 [Compound P-3048, (6-Ethyl-pyridin-3-yl)-[6-fluoro-5-(5-methyl-1H-pyrrolo[2,3-b]pyridin-3-ylmethyl)-pyridin-2-yl]-amine]
IC50 (BCR-NTRK1 BaF3 cells): < 100 nM | IC50 (CYP2D6): > 10 µM | IC50 (CYP3A4(BFC)): > 10 µM

CCc1ccc(Nc2ccc(C(=O)c3c[nH]c4ncc(C)cc34)c(F)n2)cn1 [Compound P-3049, [6-(6-Ethyl-pyridin-3-ylamino)-2-fluoro-pyridin-3-yl]-(5-methyl-1H-pyrrolo[2,3-b]pyridin-3-yl)-methanone]
IC50 (BCR-NTRK1 BaF3 cells): < 10 nM | IC50 (CYP2D6): > 10 µM | IC50 (CYP3A4(BFC)): > 10 µM

Cc1cnc2[nH]cc(Cc3ccc(Nc4ccc(C5CC5)nc4)nc3F)c2c1 [Compound P-3050, (6-Cyclopropyl-pyridin-3-yl)-[6-fluoro-5-(5-methyl-1H-pyrrolo[2,3-b]pyridin-3-ylmethyl)-pyridin-2-yl]-amine]
IC50 (BCR-NTRK1 BaF3 cells): < 100 nM | IC50 (CYP2D6): > 10 µM | IC50 (CYP3A4(BFC)): > 10 µM

Cc1cnc2[nH]cc(C(=O)c3ccc(Nc4ccc(C5CC5)nc4)nc3F)c2c1 [Compound P-3051, [6-(6-Cyclopropyl-pyridin-3-ylamino)-2-fluoro-pyridin-3-yl]-(5-methyl-1H-pyrrolo[2,3-b]pyridin-3-yl)-methanone]
IC50 (BCR-NTRK1 BaF3 cells): < 100 nM | IC50 (CYP2D6): > 10 µM | IC50 (CYP3A4(BFC)): > 10 µM

O=C(c1ccc(Nc2ccc(C3CC3)nc2)nc1F)c1c[nH]c2ncccc12 [Compound P-3052, [6-(6-Cyclopropyl-pyridin-3-ylamino)-2-fluoro-pyridin-3-yl]-(1H-pyrrolo[2,3-b]pyridin-3-yl)-methanone]
IC50 (BCR-NTRK1 BaF3 cells): < 100 nM | IC50 (CYP2D6): > 10 µM | IC50 (CYP3A4(BFC)): > 10 µM

Fc1nc(Nc2ccc(C3CC3)nc2)ccc1Cc1c[nH]c2ncccc12 [Compound P-3053, (6-Cyclopropyl-pyridin-3-yl)-[6-fluoro-5-(1H-pyrrolo[2,3-b]pyridin-3-ylmethyl)-pyridin-2-yl]-amine]
IC50 (BCR-NTRK1 BaF3 cells): < 100 nM | IC50 (CYP2D6): > 10 µM | IC50 (CYP3A4(BFC)): > 10 µM

COc1ccc(Nc2ccc(Cc3c[nH]c4ncnc(OC)c34)c(F)n2)cn1 [Compound P-4001, [6-Fluoro-5-(4-methoxy-7H-pyrrolo[2,3-d]pyrimidin-5-ylmethyl)-pyridin-2-yl]-(6-methoxy-pyridin-3-yl)-amine]
IC50 (BCR-NTRK1 BaF3 cells): < 100 nM | IC50 (CYP2D6): > 10 µM | IC50 (CYP3A4(BFC)): > 10 µM

COc1ccc(Nc2ccc(Cc3c[nH]c4ncnc(C)c34)c(F)n2)cn1 [Compound P-4002, [6-Fluoro-5-(4-methyl-7H-pyrrolo[2,3-d]pyrimidin-5-ylmethyl)-pyridin-2-yl]-(6-methoxy-pyridin-3-yl)-amine]
IC50 (BCR-NTRK1 BaF3 cells): < 1000 nM | IC50 (CYP2D6): > 10 µM | IC50 (CYP3A4(BFC)): > 10 µM

COc1ncnc2[nH]cc(Cc3ccc(Nc4ccc(Cl)nc4)nc3F)c12 [Compound P-4003, (6-Chloro-pyridin-3-yl)-[6-fluoro-5-(4-methoxy-7H-pyrrolo[2,3-d]pyrimidin-5-ylmethyl)-pyridin-2-yl]-amine]
IC50 (BCR-NTRK1 BaF3 cells): < 1000 nM | IC50 (CYP2D6): > 10 µM | IC50 (CYP3A4(BFC)): > 10 µM

COc1ncnc2[nH]cc(Cc3ccc(Nc4ccc(C5CC5)nc4)nc3F)c12 [Compound P-4004, (6-Cyclopropyl-pyridin-3-yl)-[6-fluoro-5-(4-methoxy-7H-pyrrolo[2,3-d]pyrimidin-5-ylmethyl)-pyridin-2-yl]-amine]
IC50 (BCR-NTRK1 BaF3 cells): < 10 nM | IC50 (CYP2D6): > 10 µM | IC50 (CYP3A4(BFC)): > 10 µM

CCOc1ccc(Nc2ccc(Cc3c[nH]c4ncnc(OC)c34)c(F)n2)cn1 [Compound P-4005, (6-Ethoxy-pyridin-3-yl)-[6-fluoro-5-(4-methoxy-7H-pyrrolo[2,3-d]pyrimidin-5-ylmethyl)-pyridin-2-yl]-amine]
IC50 (BCR-NTRK1 BaF3 cells): < 100 nM | IC50 (CYP2D6): > 10 µM | IC50 (CYP3A4(BFC)): > 10 µM

CCOc1ccc(Nc2ccc(Cc3c[nH]c4ncnc(C)c34)c(F)n2)cn1 [Compound P-4006, (6-Ethoxy-pyridin-3-yl)-[6-fluoro-5-(4-methyl-7H-pyrrolo[2,3-d]pyrimidin-5-ylmethyl)-pyridin-2-yl]-amine]
IC50 (BCR-NTRK1 BaF3 cells): < 100 nM | IC50 (CYP2D6): > 10 µM | IC50 (CYP3A4(BFC)): > 10 µM

CCc1ccc(Nc2ccc(Cc3c[nH]c4ncnc(OC)c34)c(F)n2)cn1 [Compound P-4007, (6-Ethyl-pyridin-3-yl)-[6-fluoro-5-(4-methoxy-7H-pyrrolo[2,3-d]pyrimidin-5-ylmethyl)-pyridin-2-yl]-amine]
IC50 (BCR-NTRK1 BaF3 cells): < 10 nM | IC50 (CYP2D6): > 10 µM | IC50 (CYP3A4(BFC)): > 10 µM

CCOc1ccc(Nc2ccc(Cc3c[nH]c4ncnc(OCCOC)c34)c(F)n2)cn1 [Compound P-4008, (6-Ethoxy-pyridin-3-yl)-{6-fluoro-5-[4-(2-methoxy-ethoxy)-7H-pyrrolo[2,3-d]pyrimidin-5-ylmethyl]-pyridin-2-yl}-amine]
IC50 (BCR-NTRK1 BaF3 cells): < 100 nM | IC50 (CYP2D6): > 10 µM | IC50 (CYP3A4(BFC)): 5 to 10 µM

CCOc1ccc(Nc2ccc(C(=O)c3c[nH]c4ncnc(C5CC5)c34)c(F)n2)cn1 [Compound P-4027, (4-Cyclopropyl-7H-pyrrolo[2,3-d]pyrimidin-5-yl)-[6-(6-ethoxy-pyridin-3-ylamino)-2-fluoro-pyridin-3-yl]-methanone]
IC50 (BCR-NTRK1 BaF3 cells): < 100 nM

CCOc1ccc(Nc2ccc(C(=O)c3c[nH]c4ncnc(C)c34)c(F)n2)cn1 [Compound P-4032, [6-(6-Ethoxy-pyridin-3-ylamino)-2-fluoro-pyridin-3-yl]-(4-methyl-7H-pyrrolo[2,3-d]pyrimidin-5-yl)-methanone]
IC50 (BCR-NTRK1 BaF3 cells): < 100 nM

Cc1cncc(Nc2ccc(Cc3c[nH]c4ncnc(C5CC5)c34)c(F)n2)c1 [Compound P-4038, [5-(4-Cyclopropyl-7H-pyrrolo[2,3-d]pyrimidin-5-ylmethyl)-6-fluoro-pyridin-2-yl]-(5-methyl-pyridin-3-yl)-amine]
IC50 (BCR-NTRK1 BaF3 cells): < 1000 nM

Cc1cncc(Nc2ccc(C(=O)c3c[nH]c4ncnc(C5CC5)c34)c(F)n2)c1 [Compound P-4039, (4-Cyclopropyl-7H-pyrrolo[2,3-d]pyrimidin-5-yl)-[2-fluoro-6-(5-methyl-pyridin-3-ylamino)-pyridin-3-yl]-methanone]
IC50 (BCR-NTRK1 BaF3 cells): < 100 nM
